Test results published in US7482348B2, “Piperazinyl substituted cyclohexane-1,4-diamines” (Janssen Pharmaceutica N.V., priority 2005, dated 2009).

Key:
α1a-AR = biological target: T1, α1a-AR (Homo sapiens, UniProt P35348); assay: α1-Adrenergic receptor radio-ligand (125I-HEAT) binding assay, α1a subtype; details: membranes of transfected COS-7 cells, 125I-HEAT 50 pM
T1 construct: expressed in transfected cells; host or cells: COS-7 (African green monkey kidney) membranes
T1 sequence (P35348 1-455 isoform P35348-4): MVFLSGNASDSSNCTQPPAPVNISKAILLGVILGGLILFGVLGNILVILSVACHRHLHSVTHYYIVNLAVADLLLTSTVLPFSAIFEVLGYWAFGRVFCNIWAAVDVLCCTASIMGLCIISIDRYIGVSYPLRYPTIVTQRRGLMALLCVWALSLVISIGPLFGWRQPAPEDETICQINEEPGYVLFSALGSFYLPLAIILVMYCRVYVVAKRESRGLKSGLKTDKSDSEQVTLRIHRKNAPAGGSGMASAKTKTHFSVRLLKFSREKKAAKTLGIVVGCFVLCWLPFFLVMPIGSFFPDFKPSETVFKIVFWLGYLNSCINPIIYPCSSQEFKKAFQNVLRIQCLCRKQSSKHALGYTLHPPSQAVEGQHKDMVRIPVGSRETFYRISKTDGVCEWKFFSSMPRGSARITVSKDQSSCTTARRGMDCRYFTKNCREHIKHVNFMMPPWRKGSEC
Procedure: (§1) α1-Adrenergic Receptor Binding Assay
(§2) Preparation of COS Cell Membranes
(§3) Membranes were prepared from COS-7 cells (African Green monkey kidney SV40-transformed cells) that had been transfected with one of the three α1-AR subtypes (Genbank accession number for the α1a subtype: AF013261; Genbank accession number for the α1b subtype: NM000679; Genbank accession number for the α1d subtype: NM000678) using the following method: COS cells from ten 100 mm tissue culture plates were scraped into a 5 mL volume of TE (a mixture of 50 mM Tris-HCl, 5 mM EDTA, pH 7.4). The cell suspension was disrupted with a Brinkman Polytron (at a setting of 8) for 10 sec. The disrupted cells were centrifuged at 1000×g for 10 min at 4° C. Supernatants were centrifuged at 34,500×g for 20 min at 4° C. The membrane pellets were suspended in a 2 mL volume of TNE (a mixture of 50 mM Tris-HCl, 5 mM EDTA and 150 mM NaCl at pH 7.4). An aliquot of the membrane suspension was stored at −70° C. until use. The protein concentration was determined using the BioRad “DC” protein assay kit following membrane solubilization with Triton X-100.
(§4) Radio-ligand Binding Assay
(§5) Triplicate determinations of radio-ligand binding in the presence of increasing concentrations of testing compound were made. The reagents were added to 96-well polypropylene plate wells. Each assay well contained 140 μL TNE, 25 μL ^125I-2-(β-4-hydroxyphenyl)ethylaminomethyltetralone (^125I-HEAT) (specific activity 2200 Ci/mmol, Dupont-New England Nuclear, 50 pM final), 10 μL testing compound dissolved in dimethyl sulfoxide (DMSO) (1 pM to 10 μM in half-log increments, final), and 25 μL appropriate α1-AR membrane subtype suspension in TNE (0.5 ng/μL for the α1a and α1b subtypes and 13 ng/μL for the α1d subtype). The plate was incubated at rt for 1 hr. The contents of the wells were filtered through a glass filter (type C) (GF/C) membrane Unifilter plate (Packard Instruments) using the Packard Filtermate cell harvester. The filter plates were dried in a vacuum oven for 30 min at 40° C. 25 μL Microscint 20 liquid scintillation fluid (Packard Instuments) was added to each well. The radioactive content was analyzed in the TopCount microplate scintillation counter (Packard Instruments).
(§6) The Ki values (in nM) shown in Table 1 were determined using GraphPad Prism software.

α1d-AR = biological target: T2, α1d-AR (Homo sapiens, UniProt P25100); assay: α1-Adrenergic receptor radio-ligand (125I-HEAT) binding assay, α1d subtype; details: membranes of transfected COS-7 cells, 125I-HEAT 50 pM
T2 construct: expressed in transfected cells; host or cells: COS-7 (African green monkey kidney) membranes
T2 sequence (P25100 1-572): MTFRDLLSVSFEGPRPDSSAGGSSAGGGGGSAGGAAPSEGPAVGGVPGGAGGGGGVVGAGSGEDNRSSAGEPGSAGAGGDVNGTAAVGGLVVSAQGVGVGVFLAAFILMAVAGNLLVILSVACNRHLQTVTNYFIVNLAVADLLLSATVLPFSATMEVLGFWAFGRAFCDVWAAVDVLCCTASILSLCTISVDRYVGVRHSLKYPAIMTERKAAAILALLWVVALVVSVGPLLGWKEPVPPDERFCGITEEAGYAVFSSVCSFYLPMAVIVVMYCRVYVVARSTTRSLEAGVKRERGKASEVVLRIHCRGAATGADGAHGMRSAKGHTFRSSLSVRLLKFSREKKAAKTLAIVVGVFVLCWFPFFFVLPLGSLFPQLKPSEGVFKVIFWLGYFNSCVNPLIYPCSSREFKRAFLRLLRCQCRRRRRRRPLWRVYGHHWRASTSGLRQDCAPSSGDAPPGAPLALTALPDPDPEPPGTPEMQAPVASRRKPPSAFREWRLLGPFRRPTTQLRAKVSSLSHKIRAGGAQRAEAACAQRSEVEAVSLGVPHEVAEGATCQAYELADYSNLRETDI
Procedure: as §1, §2, §3, §4, §5, §6

α1b-AR = biological target: T3, α1b-AR (Homo sapiens, UniProt P35368); assay: α1-Adrenergic receptor radio-ligand (125I-HEAT) binding assay, α1b subtype; details: membranes of transfected COS-7 cells, 125I-HEAT 50 pM
T3 construct: expressed in transfected cells; host or cells: COS-7 (African green monkey kidney) membranes
T3 sequence (P35368 1-520): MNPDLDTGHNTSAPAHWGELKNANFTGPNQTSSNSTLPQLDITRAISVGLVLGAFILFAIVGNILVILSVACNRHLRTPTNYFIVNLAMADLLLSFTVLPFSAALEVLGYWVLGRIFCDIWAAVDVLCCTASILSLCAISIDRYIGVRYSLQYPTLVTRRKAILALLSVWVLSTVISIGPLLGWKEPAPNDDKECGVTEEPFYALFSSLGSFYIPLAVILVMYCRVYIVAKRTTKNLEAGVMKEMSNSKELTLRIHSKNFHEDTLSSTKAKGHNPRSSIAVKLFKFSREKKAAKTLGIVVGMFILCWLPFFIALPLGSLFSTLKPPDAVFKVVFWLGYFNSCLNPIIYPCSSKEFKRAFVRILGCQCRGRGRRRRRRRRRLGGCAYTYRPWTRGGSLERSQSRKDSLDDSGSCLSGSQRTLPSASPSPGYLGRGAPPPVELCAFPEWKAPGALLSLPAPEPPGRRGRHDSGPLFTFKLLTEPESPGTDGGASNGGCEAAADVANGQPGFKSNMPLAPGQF
Procedure: as §1, §2, §3, §4, §5, §6

[1] = test system: α1a and α1d subtypes over the α1b subtype; details: cited from earlier work

Compound	Ki (α1a-AR) [nM]	Ki (α1d-AR) [nM]	Ki (α1b-AR) [nM]	selectivity for the α1a and α1d subtypes over the α1b subtype [1]
COc1ccc(Cl)cc1S(=O)(=O)N[C@H]1CC[C@@H](N2CCN(c3ncccc3OCC3CC3)CC2)CC1 [Cpd 9, 5-chloro-N-cis-{4-[4-(3-cyclopropylmethoxy-pyridin-2-yl)-piperazin-1-yl]-cyclohexyl}-2-methoxy-benzenesulfonamide]	18.7	48.3	601	
CCOc1ccccc1OCCN[C@H](C)Cc1ccc(OC)c(S(N)(=O)=O)c1 [Tamsulosin]				about 15 fold
O=S(=O)(N[C@H]1CC[C@@H](N2CCN(c3ncccc3OCC3CC3)CC2)CC1)c1cc(Cl)ccc1F [Cpd 11, 5-chloro-N-cis-{4-[4-(3-cyclopropylmethoxy-pyridin-2-yl)-piperazin-1-yl]-cyclohexyl}-2-fluoro-benzenesulfonamide]	35.7	43.6	952	
COc1ccc(S(=O)(=O)N[C@H]2CC[C@@H](N3CCN(c4ncccc4OC(C)C)CC3)CC2)cc1OC [Cpd 3, N-cis-{4-[4-(3-isopropoxy-pyridin-2-yl)-piperazin-1-yl]-cyclohexyl}-3,4-dimethoxy-benzenesulfonamide]	61	19	112	

Further compounds by falling Ki (α1a-AR), results first:

Ki (α1a-AR) [nM]	Ki (α1d-AR) [nM]	Ki (α1b-AR) [nM]	Compound	selectivity for the α1a and α1d subtypes over the α1b subtype [1]
189	64	364	COc1ccc(S(=O)(=O)N[C@H]2CC[C@@H](N3CCN(c4ncccc4OCC4CC4)CC3)CC2)cc1OC [Cpd 1, N-cis-{4-[4-(3-cyclopropylmethoxy-pyridin-2-yl)-piperazin-1-yl]-cyclohexyl}-3,4-dimethoxy-benzenesulfonamide]	
44.7	15.3	1860	CC(C)Oc1cccnc1N1CCN([C@H]2CC[C@@H](NS(=O)(=O)c3cc(Cl)ccc3F)CC2)CC1 [Cpd 7, 5-chloro-2-fluoro-N-cis-{4-[4-(3-isopropoxy-pyridin-2-yl)-piperazin-1-yl]-cyclohexyl}-benzenesulfonamide]	
10.7	12.4	399	COc1ccc(Cl)cc1S(=O)(=O)N[C@H]1CC[C@@H](N2CCN(c3ncccc3OC(C)C)CC2)CC1 [Cpd 5, 5-chloro-N-cis-{4-[4-(3-isopropoxy-pyridin-2-yl)-piperazin-1-yl]-cyclohexyl}-2-methoxy-benzenesulfonamide]	
